From publication PMC9165293, “Characterization in nonhuman primates of (R)-[^18F]OF-Me-NB1 and (S)-[^18F]OF-Me-NB1 for imaging the GluN2B subunits of the NMDA receptor” (European Journal of Nuclear Medicine and Molecular Imaging, 2022)
Several values for one entry are separate records, joined by “and”; a condition that tells them apart may be missing. Equal values may be shown once. Read-outs that look alike come from different tables or passages of the source.

Assays:
[1] = biological target: GluN2B subunit-containing NMDARs; settings: cited from earlier work
sigma-1 receptor = settings: cited from earlier work
[2] = biological target: T1, GluN2B subunits of the NMDA receptor (Macaca mulatta, UniProt F6T8S6); test: PET imaging in rhesus monkeys, baseline scans with kinetic modeling; type: in vivo, rhesus monkeys (Macaca mulatta); settings: for BPND, cerebellum / BPND, cingulate cortex / BPND, frontal cortex / BPND, hippocampus / BPND, semiovale / BPND, thalamus: from baseline VT and VND of Co101,244 occupancy plot; for Peak uptake SUV across brain regions / Time to peak brain uptake after tracer injection: baseline scan, monkey brain; for VT, cerebellum / VT, cingulate cortex / VT, frontal cortex / VT, hippocampus / VT, semiovale / VT, thalamus: baseline, MA1
T1 construct: consistent with the pattern of GluN2B expression in the monkey brain; from tissue; host or cells: brain of living rhesus monkeys (in vivo PET)
T1 sequence (F6T8S6 29-1484): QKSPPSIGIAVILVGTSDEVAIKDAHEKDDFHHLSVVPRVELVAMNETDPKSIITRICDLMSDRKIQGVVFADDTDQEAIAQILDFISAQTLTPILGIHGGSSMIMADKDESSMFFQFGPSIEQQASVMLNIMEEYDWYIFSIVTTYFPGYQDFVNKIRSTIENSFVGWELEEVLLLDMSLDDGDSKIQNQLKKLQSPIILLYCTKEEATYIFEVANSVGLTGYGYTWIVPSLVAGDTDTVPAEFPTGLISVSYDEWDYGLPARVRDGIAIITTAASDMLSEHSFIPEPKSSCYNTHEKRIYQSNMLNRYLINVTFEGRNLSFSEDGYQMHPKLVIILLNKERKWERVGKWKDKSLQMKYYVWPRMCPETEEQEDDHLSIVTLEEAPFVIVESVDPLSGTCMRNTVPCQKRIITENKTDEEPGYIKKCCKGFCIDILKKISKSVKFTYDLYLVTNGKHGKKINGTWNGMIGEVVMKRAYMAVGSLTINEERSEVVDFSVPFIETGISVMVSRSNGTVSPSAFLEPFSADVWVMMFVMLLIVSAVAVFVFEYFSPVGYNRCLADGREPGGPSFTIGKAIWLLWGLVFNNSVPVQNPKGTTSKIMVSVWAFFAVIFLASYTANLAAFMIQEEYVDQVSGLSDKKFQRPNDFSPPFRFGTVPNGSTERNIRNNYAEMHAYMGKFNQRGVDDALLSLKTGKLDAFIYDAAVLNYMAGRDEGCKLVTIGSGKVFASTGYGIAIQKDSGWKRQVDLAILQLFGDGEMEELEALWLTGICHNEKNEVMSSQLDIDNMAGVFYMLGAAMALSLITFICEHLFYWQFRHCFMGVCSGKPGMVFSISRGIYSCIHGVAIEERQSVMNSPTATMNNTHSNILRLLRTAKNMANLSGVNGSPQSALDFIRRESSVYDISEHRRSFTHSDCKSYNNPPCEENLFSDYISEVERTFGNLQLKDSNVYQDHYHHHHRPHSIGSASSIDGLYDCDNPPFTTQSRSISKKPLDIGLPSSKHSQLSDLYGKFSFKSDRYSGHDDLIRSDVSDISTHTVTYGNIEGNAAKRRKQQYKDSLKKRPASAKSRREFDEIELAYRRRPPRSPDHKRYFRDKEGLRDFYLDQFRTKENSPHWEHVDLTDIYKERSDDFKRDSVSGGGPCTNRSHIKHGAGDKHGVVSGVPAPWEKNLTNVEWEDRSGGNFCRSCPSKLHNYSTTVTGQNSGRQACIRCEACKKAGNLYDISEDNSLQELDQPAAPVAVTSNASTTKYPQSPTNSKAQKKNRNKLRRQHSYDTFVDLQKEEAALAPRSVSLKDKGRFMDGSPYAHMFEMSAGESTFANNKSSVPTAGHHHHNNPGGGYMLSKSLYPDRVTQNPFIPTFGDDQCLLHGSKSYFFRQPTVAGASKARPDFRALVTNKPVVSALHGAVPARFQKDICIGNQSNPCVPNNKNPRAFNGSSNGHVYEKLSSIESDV
Procedure: (§1) A total of seven PET scans in two monkeys were acquired. Each monkey underwent one baseline scan with (R)-[^18F]OF-Me-NB1, and two blocking scans at 10 min after the injection of the GluN2B antagonist Co-101,244 (0.25 mg/kg) or the sigma-1 antagonist FTC-146 (0.027 and 0.125 mg/kg). Co-101,244 and FTC-146 were previously used by Cai et al. to determine the in vivo binding specificity and selectivity of a radiotracer from the same scaffold, [^11C]NR2B-SMe, in rodents. In addition, a baseline scan with (S)-[^18F]OF-Me-NB1 was also performed in one monkey. All procedures were approved by the Yale University Institutional Animal Care and Use Committee.
(§2) Animals were sedated with a combination of alfaxalone (2 mg/kg), midazolam (0.3 mg/kg), and dexmedetomidine (0.01 mg/kg) and maintained in an anesthetized state with 1.5–2.5% isoflurane in oxygen. Heart rate, blood pressure, respiration rate, oxygen saturation, and respiration rate were monitored continuously. An arterial line was placed in the radial artery for blood sampling.
Dynamic PET data were acquired on the Focus 220 scanner (Siemens Medical Solutions, Knoxville, TN, USA). Before radiotracer injection, a 9 min transmission scan was obtained for attenuation correction. The radiotracer (10 mL) was administered intravenously as a slow bolus over 3 min. Emission data were collected in list mode for 90 or 120 min and binned into frames of increasing durations (6 × 30 s, 3 × 1 min, 2 × 2 min, and […]).
High-resolution magnetic resonance images were acquired with a Siemens 3 T Trio scanner for the region of interest (ROI) definition. PET emission data were attenuation-corrected using the transmission scan, then reconstructed using a Fourier rebinning and filtered back-projection algorithm. PET images summed from the first 10 min of each scan were registered to the anatomical MR image. Inverted transformations were applied to register an atlas ROI mask to the PET image, and time-activity curves (TACs) were extracted from each ROI: frontal, occipital, temporal, cingulate and insular cortex, caudate, putamen, globus pallidus, nucleus accumbens, amygdala, hippocampus, thalamus, pons, substantia nigra, cerebellum, and centrum semiovale.
(§3) Kinetic parameters were determined by fitting the regional TACs and metabolite-corrected arterial input functions to the one-tissue compartment (1TC) and two-tissue compartment (2TC) models, as well as the multilinear analysis 1 (MA1) method with starting time of 30 min [28]. The regional volume of distribution (VT, mL/cm^3) was derived in each case.

[3] = Plasma metabolite analysis (parent fraction over time); type: in vivo, rhesus monkeys; settings: for Parent fraction of total plasma activity: baseline scans; for Effect of pretreatment on parent fraction of (R)-[^18F]OF-Me-NB1 in plasma: blocking scans
Procedure: Measurements of plasma activity and parent fraction over time were performed as previously described. Arterial or venous blood samples were collected at preselected time points and assayed for radioactivity in whole blood and plasma with cross-calibrated gamma counters (Wizard 1480/2480, Perkin Elmer, Waltham, MA, USA). The volume of the whole blood or plasma (50–200 µL) was determined by the weight of the sample. Parent fraction was calculated as the ratio of the total radioactivity in fractions containing the parent compound to the total amount of radioactivity collected and fitted with an inverted gamma function and corrected for filtration efficiency. The arterial plasma input function (AIF) was then calculated as the product of the total counts in the plasma and the interpolated parent fraction at each time point.

[4] = Plasma free fraction (fP) by ultrafiltration; type: in vitro ADME, rhesus monkeys; settings: monkey plasma
Procedure: The ultrafiltration method was used for measuring the unbound portion (free fraction) of [^18F]OF-Me-NB1 in plasma as previously described. The fP was determined as the ratio of the radioactivity concentration in the filtrate to the total activity in plasma. Measurements of fP were performed in triplicate for each scan.

[5] = Measurement of lipophilicity (log D7.4), 1-octanol/PBS; type: physicochemical; settings: 1-octanol/PBS pH 7.4; n = 4
Procedure: Lipophilicity (log D7.4) was measured using the method previously reported. Log D7.4 was calculated as the ratio of decay-corrected radioactivity concentrations in 1-octanol and phosphate-buffered saline (PBS, pH = 7.4, Dulbecco). Six consecutive equilibrations were performed until a constant value of log D7.4 was obtained.

[6] = biological target: T1, GluN2B subunits of the NMDA receptor; test: PET blocking studies and occupancy (Lassen) plot with (R)-[^18F]OF-Me-NB1; type: in vivo, rhesus monkeys (Macaca mulatta); settings: for VT, cerebellum / VT, cingulate cortex / VT, frontal cortex / VT, hippocampus / VT, semiovale / VT, thalamus: MA1; for Non-displaceable volume of distribution (VND): from occupancy plot with Co101,244 0.25 mg/kg; for Receptor occupancy (occupancy plot): tracer (R)-[^18F]OF-Me-NB1
Procedure: as §1, §3
For the blocking studies, occupancy plots were constructed using regional VT values at baseline and differences in VT between baseline and blocking scans. Percent target occupancy across the brain and non-displaceable volume of distribution (VND) was then determined from the resulting linear relationship, where the slope is the uniform receptor occupancy by the drug in the brain [29].

[7] = Vital signs monitoring during PET scans; type: in vivo, rhesus monkeys; settings: after the injections of blocking drug and tracer for the blocking scan
Procedure: as §2

[8] = M1 (male), listed as (R)–[^18F]OF–Me–NB1
[9] = blocking with Co 101,244 (0.25 mg/kg), M1
[10] = blocking with Co 101,244 (0.25 mg/kg), M2
[11] = blocking with FTC-146 (0.027 mg/kg), M1
[12] = blocking with FTC-146 (0.125 mg/kg), M2

SMILES: COc1ccc2c(c1)CCN(CCCCc1ccccc1[18F])C[C@@H]2O [(R)-[^18F]OF-Me-NB1]
- Ki ([1]; read-out: Ki, binding affinity to GluN2B): 4 nM
- Ki (sigma-1 receptor): 100 nM
- BPND, cerebellum ([2]; M1 (male)): 0.4
- BPND, cingulate cortex ([2]; M1 (male)): 1.0
- BPND, frontal cortex ([2]; M1 (male)): 0.68
- BPND, hippocampus ([2]; M1 (male)): 0.73
- BPND, semiovale ([2]; M1 (male)): 0.43
- BPND, thalamus ([2]; M1 (male)): 0.48
- BPND, cerebellum [2, 8]: 0.40
- BPND, cingulate cortex [2, 8]: 1.01
- BPND, cerebellum ([2]; M2 (female)): 0.43
- BPND, cingulate cortex ([2]; M2 (female)): 0.90
- BPND, frontal cortex ([2]; M2 (female)): 0.60
- BPND, hippocampus ([2]; M2 (female)): 0.60
- BPND, semiovale ([2]; M2 (female)): 0.48
- BPND, thalamus ([2]; M2 (female)): 0.50
- Peak uptake SUV across brain regions [2]: 4.5–6.5
- Time to peak brain uptake after tracer injection [2]: ≤ 20 min
- VT, cerebellum ([2]; M1): 8.9 mL/cm^3
- VT, cingulate cortex ([2]; M1): 12.8 mL/cm^3
- VT, frontal cortex ([2]; M1): 10.7 mL/cm^3
- VT, hippocampus ([2]; M1): 11.0 mL/cm^3
- VT, semiovale ([2]; M1): 9.1 mL/cm^3
- VT, thalamus ([2]; M1): 9.4 mL/cm^3
- VT, cerebellum ([2]; M2): 9.2 mL/cm^3
- VT, cingulate cortex ([2]; M2): 12.2 mL/cm^3
- VT, frontal cortex ([2]; M2): 10.3 mL/cm^3
- VT, hippocampus ([2]; M2): 10.3 mL/cm^3
- VT, semiovale ([2]; M2): 9.5 mL/cm^3
- VT, thalamus ([2]; M2): 9.6 mL/cm^3
- BPND in most brain regions ([2]; rhesus monkeys): > 0.5
- Parent fraction of total plasma activity ([3]; 30 min after tracer injection): ~ 30%
- Parent fraction of total plasma activity ([3]; 90 min after tracer injection): 20%
- fraction unbound [4]: 0.012 ± 0.002
- logD [5]: 2.85 ± 0.01
- VT, cerebellum [6, 9]: 6.9 mL/cm^3
- VT, cingulate cortex [6, 9]: 8.1 mL/cm^3
- VT, frontal cortex [6, 9]: 6.8 mL/cm^3
- VT, hippocampus [6, 9]: 6.9 mL/cm^3
- VT, semiovale [6, 9]: 8.6 mL/cm^3
- VT, thalamus [6, 9]: 6.8 mL/cm^3
- VT, cerebellum [6, 10]: 7.6 mL/cm^3
- VT, cingulate cortex [6, 10]: 7.9 mL/cm^3
- VT, frontal cortex [6, 10]: 7.4 mL/cm^3
- VT, hippocampus [6, 10]: 7.3 mL/cm^3
- VT, semiovale [6, 10]: 8.0 mL/cm^3
- VT, thalamus [6, 10]: 6.8 mL/cm^3
- VT, cerebellum [6, 11]: 9.3 mL/cm^3
- VT, cingulate cortex [6, 11]: 11.6 mL/cm^3
- VT, frontal cortex [6, 11]: 9.4 mL/cm^3
- VT, hippocampus [6, 11]: 10.5 mL/cm^3
- VT, semiovale [6, 11]: 9.5 mL/cm^3
- VT, thalamus [6, 11]: 9.4 mL/cm^3
- VT, cerebellum [6, 12]: 8.7 mL/cm^3
- VT, cingulate cortex [6, 12]: 10.1 mL/cm^3
- VT, frontal cortex [6, 12]: 9.2 mL/cm^3
- VT, hippocampus [6, 12]: 9.2 mL/cm^3
- VT, semiovale [6, 12]: 8.4 mL/cm^3
- VT, thalamus [6, 12]: 8.6 mL/cm^3
- Non-displaceable volume of distribution (VND) ([6]; female monkey (monkey 2)): 6.4 mL/cm^3
- Non-displaceable volume of distribution (VND) ([6]; male monkey (monkey 1)): 6.36 mL/cm^3 and 6.4 mL/cm^3

SMILES: COc1ccc2c(c1)CCN(CCCCc1ccccc1[18F])C[C@H]2O [(S)-[^18F]OF-Me-NB1]
- Peak uptake SUV across brain regions [2]: 3.0–4.5
- Time to peak brain uptake after tracer injection [2]: ≤ 15 min
- Parent fraction of total plasma activity ([3]; 30 min after tracer injection): 20% and ~ 20%
- Parent fraction of total plasma activity ([3]; 90 min after tracer injection): ~ 10%
- fraction unbound [4]: 0.018

SMILES: Cc1ccc(CC2(O)CCN(CCOc3ccc(O)cc3)CC2)cc1 [Co101,244, reference compound]
- Effect of pretreatment on parent fraction of (R)-[^18F]OF-Me-NB1 in plasma [3]: appeared to accelerate the decrease in parent fraction
- Blood pressure drop [7]: ~ 20%
- Receptor occupancy (occupancy plot) ([6]; Co101,244 0.25 mg/kg, female monkey (monkey 2)): 68%
- Receptor occupancy (occupancy plot) ([6]; Co101,244 0.25 mg/kg, male monkey (monkey 1)): 77%

SMILES: O=c1sc2cc(CCCF)ccc2n1CCN1CCCCCC1 [FTC-146, reference compound]
- Effect of pretreatment on parent fraction of (R)-[^18F]OF-Me-NB1 in plasma [3]: had little effect
- Blood pressure drop [7]: ~ 20%
- Receptor occupancy (occupancy plot) ([6]; FTC-146 0.125 mg/kg, female monkey (monkey 2)): 33%

SMILES: CC(C(O)c1ccc(O)cc1)N1CCC(Cc2ccccc2)CC1 (centres unmarked) [Ifenprodil, reference compound]
- Ki ([1]; read-out: Ki, GluN2B subunit-containing NMDARs): 10 nM
